Results taken from patent publication US20230085307A1, “PYRIDAZINONE COMPOUND AND HERBICIDE” (NISSAN CHEMICAL CORPORATION, priority 2019, published 2023).

What was measured:
[1] = tested on: Japanese bulrush; experiment: Test Example 1: herbicidal activity, application before weed generation under submerged conditions (Table 16, symbol B); format: in vivo, Japanese bulrush (Schoenoplectus juncoides); details: 320 g/ha applied herbicide
How it was run: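 Alluvial soil was flooded to 4 cm depth, weed seeds were sown mixed and 2.5-leaf rice seedlings were transplanted. On sowing day, the compound's emulsion, diluted in water to a set dose, was applied to the water surface. Plants grew at 25–30 °C and were scored 0–5 after three weeks.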

[2] = tested on: barnyard grass; experiment: Test Example 4: herbicidal effect by soil treatment (Table 19, symbol H); format: in vivo, barnyard grass (Echinochloa crus-galli); details: 320 g/ha
How it was run: (§1)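 Pre-emergence style soil spray: seeds under ~1.5 cm sterilized diluvial soil received a uniform coat of emulsion diluted to the predetermined herbicide amount. Greenhouse 25–30° C; readout at week three on previously defined criteria.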

[3] = tested on: lambsquarters; experiment: Test Example 5: herbicidal effect by foliage application, plastic box (Table 20, symbol O); format: in vivo, lambsquarters (Chenopodium album); details: foliage application, 320 g/ha, 3 weeks after application
How it was run: (§2)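 Plants were sown into sterilized diluvial soil under about 1.5 cm cover and kept in a greenhouse at 25° C. to 30° C. Fourteen days on, foliage received an even spray of the diluted emulsion. Herbicidal or crop effect was judged three weeks afterwards.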

[4] = tested on: blackgrass; experiment: Test Example 5: herbicidal effect by foliage application, plastic box (Table 20, symbol J); format: in vivo, blackgrass (Alopecurus myosuroides); details: foliage application, 320 g/ha, 3 weeks after application
How it was run: as §2

[5] = tested on: blackgrass; experiment: Test Example 4: herbicidal effect by soil treatment (Table 19, symbol J); format: in vivo, blackgrass (Alopecurus myosuroides); details: 320 g/ha
How it was run: as §1

[6] = tested on: southern crabgrass; experiment: Test Example 4: herbicidal effect by soil treatment (Table 19, symbol F); format: in vivo, southern crabgrass (Digitaria ciliaris); details: 320 g/ha
How it was run: as §1

[7] = tested on: velvetleaf; experiment: Test Example 4: herbicidal effect by soil treatment (Table 19, symbol M); format: in vivo, velvetleaf (Abutilon theophrasti); details: 320 g/ha
How it was run: as §1

[8] = tested on: windgrass; experiment: Test Example 5: herbicidal effect by foliage application, plastic box (Table 20, symbol L); format: in vivo, windgrass (Apera spica-venti); details: foliage application, 320 g/ha, 3 weeks after application
How it was run: as §2

[9] = tested on: late watergrass; experiment: Test Example 2: herbicidal activity, application during weed generation under submerged conditions (Table 17, symbol A); format: in vivo, late watergrass (Echinochloa oryzicola); details: AAH 320 g/ha; application during weed generation, submerged conditions
How it was run: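 Herbicide emulsion, diluted with water to the chosen amount, is applied onto 4 cm floodwater over alluvial soil where the weeds were co-sown and raised at 25–30° C. Application timing: 1–2 leaves. Assessment: three weeks afterwards.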

[10] = tested on: Chinese sprangletop; experiment: Test Example 3: herbicidal effect by foliage application, Wagner pot (Table 18, symbol D); format: in vivo, chinese sprangletop (Leptochloa chinensis); details: 320 g/ha
How it was run: (§3)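 Plants were sown in alluvial soil held under 0.1–0.5 cm standing water and grown 14 days in a greenhouse at 25–30 °C. An emulsifiable formulation, water-diluted to the set dose, was then sprayed onto the foliage, and effects were scored three weeks later using previously defined criteria.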

[11] = tested on: barnyard grass; experiment: Test Example 3: herbicidal effect by foliage application, Wagner pot (Table 18, symbol H); format: in vivo, barnyard grass (Echinochloa crus-galli); details: 320 g/ha
How it was run: as §3

[12] = tested on: redroot pigweed; experiment: Test Example 4: herbicidal effect by soil treatment (Table 19, symbol N); format: in vivo, redroot pigweed (Amaranthus retroflexus); details: 320 g/ha
How it was run: as §1

[13] = tested on: lambsquarters; experiment: Test Example 4: herbicidal effect by soil treatment (Table 19, symbol O); format: in vivo, lambsquarters (Chenopodium album); details: 320 g/ha
How it was run: as §1

[14] = tested on: Italian ryegrass; experiment: Test Example 5: herbicidal effect by foliage application, plastic box (Table 20, symbol K); format: in vivo, Italian ryegrass (Lolium multiflorum); details: foliage application, 320 g/ha, 3 weeks after application
How it was run: as §2

[15] = tested on: wild oat; experiment: Test Example 5: herbicidal effect by foliage application, plastic box (Table 20, symbol I); format: in vivo, wild oat (Avena fatua); details: foliage application, 320 g/ha, 3 weeks after application
How it was run: as §2

[16] = tested on: green foxtail; experiment: Test Example 4: herbicidal effect by soil treatment (Table 19, symbol G); format: in vivo, green foxtail (Setaria viridis); details: 320 g/ha
How it was run: as §1

[17] = tested on: chickweed; experiment: Test Example 4: herbicidal effect by soil treatment (Table 19, symbol P); format: in vivo, common chickweed (Stellaria media); details: 320 g/ha
How it was run: as §1

Compound	Herbicidal effect on B: Japanese bulrush (grade 0-5) [1]	herbicidal effect rating, H: barnyard grass [2]	effect on lambsquarters (O) [3]	effect on blackgrass (J) [4]	herbicidal effect rating, J: blackgrass [5]	herbicidal effect rating, F: southern crabgrass [6]	herbicidal effect rating, M: velvetleaf [7]	effect on windgrass (L) [8]	herbicidal effect rating, A: late watergrass [9]	herbicidal effect on D (Chinese sprangletop), rating 0-5 [10]	herbicidal effect on H (barnyard grass), rating 0-5 [11]	herbicidal effect rating, N: redroot pigweed [12]	herbicidal effect rating, O: lambsquarters [13]	effect on Italian ryegrass (K) [14]	effect on wild oat (I) [15]	herbicidal effect rating, G: green foxtail [16]	herbicidal effect rating, P: chickweed [17]
CCCC(=O)Oc1c(C)nn(C)c(=O)c1-c1c(-c2ccc(OC(C)C)cc2)sc2ccc(F)cc12 [2-035]	4 (Herbicidal rate of 70% or more and less than 90%)	2 (Herbicidal rate of 20% or more and less than 40%)	3 (Herbicidal rate of 40% or more and less than 70%)	3 (Herbicidal rate of 40% or more and less than 70%)	0 (Herbicidal rate of 5% or less (almost no effect))	3 (Herbicidal rate of 40% or more and less than 70%)	3 (Herbicidal rate of 40% or more and less than 70%)	0 (Herbicidal rate of 5% or less (almost no effect))	1 (Herbicidal rate of 5% or more and less than 20%)	0 (Herbicidal rate of 5% or less (almost no effect))	5 (Herbicidal rate of 90% or more (almost completely withered))	5 (Herbicidal rate of 90% or more (almost completely withered))	5 (Herbicidal rate of 90% or more (almost completely withered))	0 (Herbicidal rate of 5% or less (almost no effect))	0 (Herbicidal rate of 5% or less (almost no effect))	3 (Herbicidal rate of 40% or more and less than 70%)	3 (Herbicidal rate of 40% or more and less than 70%)
CCCCOc1ccc(-c2sc3ccc(F)cc3c2-c2c(OC(=O)CCC)c(C)nn(C)c2=O)cc1 [2-037]	2 (Herbicidal rate of 20% or more and less than 40%)	0 (Herbicidal rate of 5% or less (almost no effect))	4 (Herbicidal rate of 70% or more and less than 90%)	0 (Herbicidal rate of 5% or less (almost no effect))	0 (Herbicidal rate of 5% or less (almost no effect))	2 (Herbicidal rate of 20% or more and less than 40%)	4 (Herbicidal rate of 70% or more and less than 90%)	0 (Herbicidal rate of 5% or less (almost no effect))	0 (Herbicidal rate of 5% or less (almost no effect))	2 (Herbicidal rate of 20% or more and less than 40%)	4 (Herbicidal rate of 70% or more and less than 90%)	5 (Herbicidal rate of 90% or more (almost completely withered))	2 (Herbicidal rate of 20% or more and less than 40%)	0 (Herbicidal rate of 5% or less (almost no effect))	0 (Herbicidal rate of 5% or less (almost no effect))	2 (Herbicidal rate of 20% or more and less than 40%)	1 (Herbicidal rate of 5% or more and less than 20%)
CCCCCOc1ccc(-c2sc3ccc(F)cc3c2-c2c(OC(=O)CCC)c(C)nn(C)c2=O)cc1 [2-038]	0 (Herbicidal rate of 5% or less (almost no effect))	0 (Herbicidal rate of 5% or less (almost no effect))	3 (Herbicidal rate of 40% or more and less than 70%)	0 (Herbicidal rate of 5% or less (almost no effect))	0 (Herbicidal rate of 5% or less (almost no effect))	0 (Herbicidal rate of 5% or less (almost no effect))	0 (Herbicidal rate of 5% or less (almost no effect))	0 (Herbicidal rate of 5% or less (almost no effect))	2 (Herbicidal rate of 20% or more and less than 40%)	4 (Herbicidal rate of 70% or more and less than 90%)	4 (Herbicidal rate of 70% or more and less than 90%)	3 (Herbicidal rate of 40% or more and less than 70%)	1 (Herbicidal rate of 5% or more and less than 20%)	0 (Herbicidal rate of 5% or less (almost no effect))	0 (Herbicidal rate of 5% or less (almost no effect))	0 (Herbicidal rate of 5% or less (almost no effect))	1 (Herbicidal rate of 5% or more and less than 20%)
Cc1nn(C)c(=O)c(-c2c(-c3ccc(OC4CCCC4)cc3)sc3ccc(F)cc23)c1O [2-039]	4 (Herbicidal rate of 70% or more and less than 90%)	0 (Herbicidal rate of 5% or less (almost no effect))	5 (Herbicidal rate of 90% or more (almost completely withered))	1 (Herbicidal rate of 5% or more and less than 20%)	0 (Herbicidal rate of 5% or less (almost no effect))	0 (Herbicidal rate of 5% or less (almost no effect))	0 (Herbicidal rate of 5% or less (almost no effect))	5 (Herbicidal rate of 90% or more (almost completely withered))	0 (Herbicidal rate of 5% or less (almost no effect))	5 (Herbicidal rate of 90% or more (almost completely withered))	5 (Herbicidal rate of 90% or more (almost completely withered))	3 (Herbicidal rate of 40% or more and less than 70%)	0 (Herbicidal rate of 5% or less (almost no effect))	1 (Herbicidal rate of 5% or more and less than 20%)	4 (Herbicidal rate of 70% or more and less than 90%)	0 (Herbicidal rate of 5% or less (almost no effect))	3 (Herbicidal rate of 40% or more and less than 70%)
CCCC(=O)Oc1c(C)nn(C)c(=O)c1-c1c(-c2ccccc2OC(F)(F)F)sc2ccc(F)cc12 [2-044]	0 (Herbicidal rate of 5% or less (almost no effect))	3 (Herbicidal rate of 40% or more and less than 70%)	1 (Herbicidal rate of 5% or more and less than 20%)	0 (Herbicidal rate of 5% or less (almost no effect))	0 (Herbicidal rate of 5% or less (almost no effect))	3 (Herbicidal rate of 40% or more and less than 70%)	3 (Herbicidal rate of 40% or more and less than 70%)	4 (Herbicidal rate of 70% or more and less than 90%)	2 (Herbicidal rate of 20% or more and less than 40%)	2 (Herbicidal rate of 20% or more and less than 40%)	3 (Herbicidal rate of 40% or more and less than 70%)	5 (Herbicidal rate of 90% or more (almost completely withered))	5 (Herbicidal rate of 90% or more (almost completely withered))	0 (Herbicidal rate of 5% or less (almost no effect))	3 (Herbicidal rate of 40% or more and less than 70%)	4 (Herbicidal rate of 70% or more and less than 90%)	3 (Herbicidal rate of 40% or more and less than 70%)
